Measured values published in PubChem BioAssay (NCI).
“And” between values parts separate entries of the source, which are not always exact repeats. Equal values may be shown once.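 Where inhibition never reached the appropriate level, the endpoint shown equals the highest concentration tested. Otherwise, values were interpolated linearly from a five-concentration, 48-hour dose response in 96-well plates. Abbreviation: GI50, concentration required for 50% inhibition of growth. TGI: concentration producing complete growth inhibition.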

Key:
Assay in all cases: NCI anticancer screen, dose series, 48 h
ACHN renal = tested on: ACHN renal
COLO 205 colon = tested on: COLO 205 colon
K-562 leukemia = tested on: K-562 leukemia
M14 melanoma = tested on: M14 melanoma
RPMI-8226 leukemia = tested on: RPMI-8226 leukemia
SK-MEL-28 melanoma = tested on: SK-MEL-28 melanoma
SNB-75 CNS = tested on: SNB-75 CNS
SW-620 colon = tested on: SW-620 colon

Row | SMILES | TGI (ACHN renal) | TGI (COLO 205 colon) [µM] | TGI (K-562 leukemia) [µM] | TGI (M14 melanoma) | TGI (RPMI-8226 leukemia) | TGI (SK-MEL-28 melanoma) | TGI (SNB-75 CNS) [µM] | TGI (SW-620 colon) [µM] | GI50 (ACHN renal) | GI50 (COLO 205 colon) [µM] | GI50 (K-562 leukemia) [µM] | GI50 (M14 melanoma) [nM] | GI50 (RPMI-8226 leukemia) [µM] | GI50 (SK-MEL-28 melanoma) [µM] | GI50 (SNB-75 CNS) [µM] | GI50 (SW-620 colon) [nM]
1 | CCc1cccc(C)c1NC(=O)CCc1nnc2s/c(=C\c3cccc4ccccc34)c(=O)n12 | > 100 µM | > 100 | > 100 | > 100 µM | > 100 µM | > 100 µM | > 100 | > 100 | – | – | – | – | – | – | – | –
2 | CCc1cccc(C)c1N1C(=O)C(=O)C(c2nc3ccccc3o2)C(=O)C1=O | > 100 µM | > 100 | > 100 | > 100 µM | > 100 µM | > 100 µM | > 100 | > 100 | – | – | – | – | – | – | – | –
3 | O=C(O)c1cc(=O)c2c([nH]c3ccccc32)s1 | > 100 µM | > 100 | > 100 | > 100 µM | > 100 µM | > 100 µM | > 100 | > 100 | – | – | – | – | – | – | – | –
4 | COC(=O)C1=C(CS(=O)c2ccc([N+](=O)[O-])cc2[N+](=O)[O-])C2C=CC1C2 (stereo unspecified) | 39.5 µM | 41.5 | 52.5 | > 100 µM | > 100 µM | – | 76.6 | 28.6 | – | – | – | – | – | – | – | –
5 | Cc1c(C(=O)/C=C/C=C/c2ccccc2)[n+](=O)c2ccccc2n1[O-] | 60.8 µM | > 100 | > 100 | 45.9 µM | – | 54.6 µM | > 100 | > 100 | – | – | – | – | – | – | – | –
6 | Cl/C(N=Nc1ccccc1)=N/Nc1ccccc1 | > 100 µM | > 100 | > 100 | – | – | > 100 µM | – | > 100 | – | – | – | – | – | – | – | –
7 | O=c1nc(-c2ccccc2)cc(CC(O)c2ccc(Cl)c(Cl)c2)[nH]1 (stereo unspecified) | > 100 µM | 31.7 | > 100 | > 100 µM | – | > 100 µM | > 100 | > 100 | – | – | – | – | – | – | – | –
8 | CCOC(=O)CN(Cn1cncn1)Cn1cncn1 | > 100 µM | > 100 | > 100 | – | > 100 µM | 37.1 µM | 91 | 60 | – | – | – | – | – | – | – | –
9 | C[Si](C)(C)C(CCCCSc1ccccc1)(Sc1ccccc1)Sc1ccccc1 | > 100 µM | > 100 | > 100 | – | > 100 µM | > 100 µM | > 100 | > 100 | – | – | – | – | – | – | – | –
10 | COC(=O)C1C(=O)CC2CCCCC21 (stereo unspecified) | > 100 µM | > 100 | > 100 | > 100 µM | > 100 µM | > 100 µM | > 100 | > 100 | – | – | – | – | – | – | – | –
11 | O=C1OC(c2ccccc2)=N/C1=C\c1ccc(Oc2ccc(Cl)c(Cl)c2)cc1 | > 100 µM | > 100 | 73.6 | > 100 µM | – | – | – | > 100 | – | – | – | – | – | – | – | –
12 | COc1ccc(-c2cc(C(=O)Nc3cc(C(F)(F)F)cc(C(F)(F)F)c3)c3ccccc3n2)cc1 | 76.2 µM | 28.4 | > 100 | 25 µM | > 100 µM | 73.9 µM | 29.6 | 21 | – | – | – | – | – | – | – | –
13 | [O-]c1ccccc1C=Nc1ccc2c(c1)CCC2.[O-]c1ccccc1C=Nc1ccc2c(c1)CCC2.[O]=[U+2]=[O] | > 100 µM | > 100 | > 100 | > 100 µM | > 100 µM | > 100 µM | > 100 | > 100 | 70300 nM | 55.2 | 11.8 | > 100000 | 16.5 | > 100 | 82.7 | > 100000
14 | Cc1ccc(S(=O)(=O)N=NC=C2c3ccccc3N(O)c3ccccc32)cc1 | 9.43 µM | 7.99 | 13 | 23.2 µM | 3.68 µM | 14.5 µM | 10.4 | 14.7 | – | – | – | – | – | – | – | –
15 | COC(=O)CCC12CCC(=O)C1[C@@H](C(=O)OC)C[C@H]2C(=O)OC (stereo partly specified) | > 100 µM | > 100 | > 100 | > 100 µM | > 100 µM | – | > 100 | > 100 | – | – | – | – | – | – | – | –
16 | COc1ccc(OC(C(=O)O)C(C)C)c2c1CCCC2=O (stereo unspecified) | > 100 µM | > 100 | > 100 | > 100 µM | > 100 µM | > 100 µM | – | > 100 | – | – | – | – | – | – | – | –
17 | CC(C)(O)/C=C/C(=O)[C@](C)(O)[C@H]1[C@H](O)C[C@@]2(C)[C@@H]3CC=C4[C@@H](C[C@H](O)C(=O)C4(C)C)[C@]3(C)C(=O)C[C@]12C | 0.931 µM and 8.45 µM | – | 37 | 5.94 µM | 0.915 µM and 0.824 µM | 0.0828 µM and 0.432 µM | – | 9.68 | 197 nM and 1280 nM | 0.0919 | 0.0608 | 56.3 | 0.0666 | 0.028 | 0.0496 | 104
18 | O=C1C(=O)N(c2ccc(Cl)cc2)C(=O)C(=O)C1c1nc2ccccc2s1 | > 100 µM | > 100 | > 100 | > 100 µM | > 100 µM | > 100 µM | > 100 | > 100 | – | – | – | – | – | – | – | –
19 | Clc1cccc(N2CCN(CCCN3CCc4c([nH]c5ccccc45)C3c3cccnc3)CC2)c1 (stereo unspecified) | 31.3 µM | 21.9 | > 100 | 4.96 µM and 5.78 µM | – | 20.4 µM | 26.7 | 38.1 | – | 5.42 | 5.06 | 2470 | – | 5.58 | – | –
